The subject of series [1] is TLR7 (R837) / TLR3 (poly:IC) induced cytokine production in BMDMs. As to the kind of experiment: ELISA of IL-1β and IL-6 in supernatant of R837 and/or poly:IC stimulated BMDMs. In kind it is cell-based, C57BL/6 mice. How it is done:
(§1) RAW264.7 cells, a mouse macrophage cell line, were cultured in DMEM medium containing 10% fetal bovine serum (FBS), 1% penicillin-streptomycin and maintained at 37 °C in 5% CO2 humidified air. Bone marrow-derived macrophages (BMDMs) generation was performed as following description. In brief, bone marrow cells were harvested from tibias and femurs of C57BL/6 mice and differentiated for 7 days in DMEM medium supplemented with 10% FBS, 1% penicillin-streptomycin and 50 ng/ml M-CSF. For human peripheral blood mononuclear cells (PBMCs) preparation, 5 ml peripheral venous blood was obtained from healthy donors in West China Hospital. PBMCs were isolated with Human Lymphocyte Separation Medium (LTS1077, Tian Jing, China) according to the manufacturer’s instructions. The experimental protocols were performed according to the approved guidelines established by the Institutional Human Research Subject Protection Committee of the Ethics Committee of West China Hospital, Sichuan University, China.
RAW264.7 cells (5×10^5/ml), BMDMs (5×10^5/ml) and PBMCs (2×10^6/ml) were plated in 96-well plates and incubated overnight. […] For the anti-inflammatory molecular mechanism study, RAW264.7 cells (5×10^5/ml) were plated in 96-well plates and stimulated with R837 (20 μg/ml) with or without the addition of NF-κB inhibitor (JSH-23, […]) for 24 h. After 24 h, the culture supernatant was collected for cytokines measurements.
IL-4, IL-17A and TNF-α in sera from different group mice were measured using CBA Multiplex kit (BD, United States). The concentrations of IL-1β and IL-6 in serum or supernatant were detected by ELISA Kit (MULTI SCIENCES, China) according to the manufacturers’ instructions.

Series [2] relates to chemokine, cytokine and TLR pathway mRNA expression in the ankles. As to the kind of experiment: Quantitative RT-PCR of ankles of STA mice. In kind it is in vivo, C57BL/6 mice. How it is done: K/BxN serum was collected from K/BxN mice at 8 weeks of age, pooled, aliquoted and stored at -20 °C. K/BxN serum-transfer arthritis (STA) model was induced by intraperitoneal (i.p.) application of 150 μL of serum at day 0. Clinical score for arthritis severity was assessed using a 0–4 point scale for each paw at various time points (0–16 total score) as described previously ([Luo et al., 2011]). 8-week old male C57BL/6 mice were purchased from Dashuo Animal Center (China, Chengdu), maintained at 25°C, and exposed to 12-h light and dark cycles. Mice were fed with standard laboratory chow and water with 1 week of acclimatization. Naive mice were used as the control group. Except the control mice, all mice were i. p. injected with 150 μL of serum, then randomly divided into the following groups and treated with different compounds daily for the consecutive 8 days: 1) STA group; 2) Solvent control group, mice were gavaged with the solvent; 3) Dexamethasone (DEX) group, mice were gavaged with 30 mg/kg DEX; 4) EFL2 group 1, mice were gavaged with 40 mg/kg EFL2; 5) EFL2 group 2, mice were intraperitoneally injected with 15 mg/kg EFL2; 6) EFL2 group 3, […] were intraperitoneally injected with 40 mg/kg EFL2. […] All animal experiments were conducted in accordance with ethical regulation for animal care and use in China.
Frozen right ankles were pulverized with liquid nitrogen and total RNA was extracted using Trizol reagent (Invitrogen). RNA was reverse transcribed into cDNA using an oligo d(T) primer. The obtained cDNA was applied for quantitative RT-PCR using SYBR Green I-dTTP (Eurogentec). Samples were analyzed in triplicate, and β-actin was used as endogenous controls. Data was analyzed using the 2^−ΔΔCt method and is expressed as “Fold change” (expression relative to housekeeping gene and normalized to reference sample).

Series [3] addresses T1, IRF5 (Mus musculus, UniProt P56477).
T1 construct: host or cells: RAW264.7
As to the kind of experiment: IRF5 plasmid transfection (overexpression) in RAW264.7 cells. To be noted: RAW264.7 transfected with IRF5 plasmid. The class given is cell-based. How it is done: RAW264.7 cells (4×10^5 cells/well) were seeded into 6-well plates before transfection with the plasmid. When cells confluency reached 60%, RAW264.7 cells were transfected with plasmid IRF5-mouse vector (Origene, United States) using TransEasy™ Transfection Reagent (FOREGENE, China). IRF5 plasmid was suspended with transfection reagent as 1:1.5. Cells were incubated at 37°C for 24 h, then treated with EFL2 and R837 for another 24 h. The supernatant was collected for IL-1β and IL-6 measurements using ELISA kits as described above. For western blot detection, RAW264.7 cells were pretreated with EFL2 (10 µM) for 1 h and stimulated with R837 (20 μg/ml) for 40 min after IRF5 plasmid transfection. Cell lysates were prepared as described above.

Series [4] relates to LPS-induced lung injury. Also on record: method as in Zhang et al., 2018. The note with it: mice; ref Zhang et al., 2018; cited from earlier work.
The test system of series [5] is RAW264.7 cells. As to the kind of experiment: Cell viability, CCK8 assay, RAW264.7. In kind it is cell-based, mouse. The note with it: CCK8, 0.1-100 μM, 20 h. How it is done: as §1
The effects of EFL2 on RAW264.7 cells, BMDMs and PBMCs viability were evaluated by Cell Counting Kit-8 (CCK8) assay (Dojindo, Japan). […] The optical absorbance at 450 nm was read with a Biotek Eon™ microplate reader (Biotek, Vermont, United States).
(Formazan colour is commonly taken as a measure of viable cells.)

[6] abbreviates: STA mice day 5, EFL2 40 mg/kg i.p.

SMILES strings stand for the structures. A value given as a limit tells only on which side of the number the result lay.

T1 sequence (P56477 whole entry): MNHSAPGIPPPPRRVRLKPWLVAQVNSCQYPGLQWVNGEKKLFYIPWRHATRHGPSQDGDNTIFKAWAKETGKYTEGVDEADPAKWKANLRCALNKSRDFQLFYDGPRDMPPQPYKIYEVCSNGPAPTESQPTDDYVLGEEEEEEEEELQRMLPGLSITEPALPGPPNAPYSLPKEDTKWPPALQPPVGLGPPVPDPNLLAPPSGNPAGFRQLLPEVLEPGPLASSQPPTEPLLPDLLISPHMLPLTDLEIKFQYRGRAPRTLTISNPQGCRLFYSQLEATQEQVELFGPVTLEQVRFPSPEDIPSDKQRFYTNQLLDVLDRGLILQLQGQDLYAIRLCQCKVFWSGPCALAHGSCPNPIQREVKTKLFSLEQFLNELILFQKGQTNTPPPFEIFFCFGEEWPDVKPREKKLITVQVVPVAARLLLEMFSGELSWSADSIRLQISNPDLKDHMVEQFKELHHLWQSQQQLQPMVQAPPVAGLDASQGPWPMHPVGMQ

As to `C=C1C(OC(=O)c2ccccc2)CC2C(C=C(C)C(=O)C3(OC(C)=O)CC(C)C(OC(=O)c4ccccc4)C3C1OC(C)=O)C2(C)C` (centres unmarked) [EFL2, Euphorbia factor L2], the “levels of IL-1β and IL-6 in the supernatant” value in series [1] (BMDMs co-stimulated by poly (I:C) and R837, various concentrations of EFL2) is given as “to different expent decreased”. Further, the IL-6 production result in series [1] (R837-stimulated BMDMs, EFL2 0.1-10 μM) is “dose-dependently reduced”. In series [1] (R837-stimulated BMDMs, EFL2 at 0.1 μM), the IL-1β secretion result is on record as “effectively inhibit”. Further, in series [2] (setting [6]), the “CXCL1 mRNA expression in the ankles” value is listed as “remarkably down-regulated” and the “CXCL5 mRNA expression in the ankles” value is recorded as “remarkably down-regulated”. The “CCL3 mRNA expression in the ankles” value in series [2] (STA mice, EFL2 15 mg/kg i.p.) is “only significantly decreased”. Moreover, in series [2] (STA mice, EFL2 40 mg/kg i.p.), the “CCL3 gene expression in the ankles” value is on record as “significantly reduced”. The “mRNA expression of up-regulated TLR pathway genes (TLR7, TLR2, TLR9, Myd88, IRAK1/4, Nfkbia/ib, IRF5, Rel, Map3K7, Mapk8) in ankles” value in series [2] (STA mice, EFL2 40 mg/kg i.p., RT-PCR) is listed as “robust inhibitory effect”. In series [2] (STA mice, EFL2 i.p. treatment), the “IL-1β mRNA expression in the ankles” value is given as “robustly inhibited” and the “IL-6 mRNA expression in the ankles” value is “robustly inhibited”. Besides, the “suppressive effect of EFL2 on nuclear translocation of IRF5 after overexpression of IRF5” value in series [3] (EFL2 10 μM, R837) is “significantly reversed”. The “EFL2-induced reduction of IL-1β and IL-6 after overexpression of IRF5” value in series [3] (EFL2 and R837 24 h) is listed as “effectively reversed”. In addition, the “effect on LPS-induced lung injury” value in series [4] is “robust improving effect”. In addition, in series [5], the “concentration at which significant cytotoxicity is displayed” value is not below 25 µM.

The values above are taken from PMC8691750, “Euphorbia Factor L2 ameliorates the Progression of K/BxN Serum-Induced Arthritis by Blocking TLR7 Mediated IRAK4/IKKβ/IRF5 and NF-kB Signaling Pathways” (Frontiers in Pharmacology, 2021).
